Assays:
[1] = target: T1, recombinant human Cox-1 (r-hu Cox1) (Homo sapiens, UniProt P23219); test: Recombinant human PGHS-1 enzyme assay (RHUCX1); format: biochemical; conditions: read-out: RHUCX1 % Inh. at Dose
T1 construct: made in house; host or cells: baculovirus/Sf9 insect cells (microsomes)
Method in brief: (§1)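 IC50 values come from linear regression of percent inhibition, itself calculated against the mean of untreated controls. The underlying signal is PGE2, determined by EIA after a brief room-temperature reaction (2.5 minutes) terminated with acid and then base-neutralized.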

[2] = target: T2, recombinant human Cox-2 (r-hu Cox-2) (Homo sapiens, UniProt P35354); test: Recombinant human PGHS-2 enzyme assay (RHUCX2); format: biochemical; conditions: read-out: RHUCX2 IC50 (parenthetical value)
T2 construct: made in house; host or cells: baculovirus/Sf9 insect cells (microsomes)
T2 sequence (P35354 18-604): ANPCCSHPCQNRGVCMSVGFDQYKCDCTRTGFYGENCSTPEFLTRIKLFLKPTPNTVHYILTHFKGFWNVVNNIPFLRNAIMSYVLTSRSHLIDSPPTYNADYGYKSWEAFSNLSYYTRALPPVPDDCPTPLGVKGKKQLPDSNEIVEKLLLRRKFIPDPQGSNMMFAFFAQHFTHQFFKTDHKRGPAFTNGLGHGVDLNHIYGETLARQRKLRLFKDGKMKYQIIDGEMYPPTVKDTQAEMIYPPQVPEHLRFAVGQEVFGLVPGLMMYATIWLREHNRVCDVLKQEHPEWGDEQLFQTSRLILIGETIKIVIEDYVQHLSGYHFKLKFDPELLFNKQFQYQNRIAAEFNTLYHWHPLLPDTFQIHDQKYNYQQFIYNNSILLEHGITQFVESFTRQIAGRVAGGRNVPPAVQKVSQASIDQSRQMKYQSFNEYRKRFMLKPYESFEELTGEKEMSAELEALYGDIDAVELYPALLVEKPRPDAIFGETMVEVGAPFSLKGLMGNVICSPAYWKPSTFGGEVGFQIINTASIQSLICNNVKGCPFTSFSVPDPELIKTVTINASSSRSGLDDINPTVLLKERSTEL
Method in brief: as §1

[3] = target: T3, Human Whole Platelet Cyclooxygenase-1 (Homo sapiens, UniProt P23219); test: Human Whole Platelet Cyclooxygenase-1 assay (HWPX); format: cell-based; conditions: read-out: HWPX IC50 (parenthetical value)
T3 construct: from tissue; host or cells: human blood: isolated platelets (A4) or heparinised whole blood (A9)
T3 sequence (P23219 24-599): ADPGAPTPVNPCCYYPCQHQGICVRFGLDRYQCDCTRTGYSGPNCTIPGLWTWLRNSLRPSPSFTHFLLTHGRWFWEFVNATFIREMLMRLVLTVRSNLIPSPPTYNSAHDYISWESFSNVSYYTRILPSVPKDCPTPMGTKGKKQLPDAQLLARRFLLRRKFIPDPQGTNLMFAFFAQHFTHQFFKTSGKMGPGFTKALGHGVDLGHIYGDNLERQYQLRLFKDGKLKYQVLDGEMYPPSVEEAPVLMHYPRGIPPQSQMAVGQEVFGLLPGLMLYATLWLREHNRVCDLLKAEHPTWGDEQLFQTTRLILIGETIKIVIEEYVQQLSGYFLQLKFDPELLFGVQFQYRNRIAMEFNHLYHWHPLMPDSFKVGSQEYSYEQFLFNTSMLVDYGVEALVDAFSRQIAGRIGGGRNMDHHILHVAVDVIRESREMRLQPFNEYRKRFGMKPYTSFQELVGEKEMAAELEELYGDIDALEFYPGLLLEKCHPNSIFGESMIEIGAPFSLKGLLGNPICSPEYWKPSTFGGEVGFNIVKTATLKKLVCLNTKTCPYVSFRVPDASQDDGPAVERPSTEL
Method in brief: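 Thromboxane production was measured with a commercial kit after stimulation of washed human platelets (ACD-anticoagulated volunteer blood) by 8.8 μM final A23187 for 10 min. Test compounds were added 10 min before stimulus; cold 6 mM EDTA terminated the reaction.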

T1 sequence (P23219 24-599): as above

Work on `NS(=O)(=O)c1ccc(-c2cnn(-c3ccc(F)cc3)c(=O)c2-c2ccc(F)cc2)cc1` [Example 89] yielded an inhibition at 10 µM ([1]; 10 μM) of 40%, an inhibition at 30 µM ([1]; 30 μM) of 62% and an IC50 [2] of 350 nM. The IC50 [3] was 2100 nM.
